In publication PMC12396409, “Screening and hit evaluation of a microbial metabolite library against the pathogenic Plasmodium falciparum and Toxoplasma gondii parasites” (International Journal for Parasitology: Drugs and Drug …, 2025):
Read-outs that look alike come from different tables or passages of the source. *1 amine or outer side, *2 acyl side, *3 side chain or, on linkers, in order; H or OH if unused. Where a SMILES comes first, the peptide text is derived from it. Bridges are numbered along the chain shown (N, C = ends). [ ]: non-standard residue; d: D form. The star is where a group is joined. hTyr(3S-OH,4S-OH,3'-OSO3H) = N[C@H](C(=O)O)[C@H](O)[C@@H](O)c1ccc(O)c(OS(=O)(=O)O)c1; Orn(4R-OH,5R-OH) = O=C([C@H](C[C@@H](O)[C@@H](O)N[*:3])N[*:1])[*:2]; Pro(3S-OH,4S-Me) = C[C@H]1CN[C@H](C(=O)O)[C@H]1O; Gln(3R-OH) = NC(=O)C[C@@H](O)[C@H](N)C(=O)O; Palmitoyl = CCCCCCCCCCCCCCCC(=O)*; Hyp = O=C(O)[C@@H]1C[C@@H](O)CN1

Experiments:
[1] = system: P. falciparum 3D7 parasites; assay: P. falciparum growth inhibition assay, 1-cycle (72 h treatment), SYBR DNA staining (library screen at 2 μg/mL and dose-response); format: cell-based, Plasmodium falciparum; conditions: for activity at 2 µg/mL: Plasmodium falciparum
[2] = system: T. gondii RH strain (RH-Tub-eYFP) tachyzoites; assay: microbe, parasite or virus in culture; format: cell-based, Toxoplasma gondii; conditions: 72 h; for percent parasite growth at 2 µg/mL: Toxoplasma gondii
[3] = system: P. falciparum 3D7 parasites; assay: P. falciparum growth inhibition assay, 2-cycle (120 h treatment), delayed-death screen and dose-response; format: cell-based, Plasmodium falciparum; conditions: for activity at 2 µg/mL: Plasmodium falciparum
[4] = library screen at 2 μg/mL, 72 h, % growth, replicate 1
[5] = library screen at 2 μg/mL, 72 h, % growth, replicate 2
[6] = library screen at 2 μg/mL, % growth, replicate 1
[7] = library screen at 2 μg/mL, % growth, replicate 2
[8] = library screen at 2 μg/mL, 120 h, % growth, replicate 1
[9] = library screen at 2 μg/mL, 120 h, % growth, replicate 2
[10] = 3D7, P. falciparum, 72 h, screen at 2 μg/mL, replicate 1, read-out: Pf_72h_%Growth_Rep1
[11] = 3D7, P. falciparum, 72 h, screen at 2 μg/mL, replicate 2, read-out: Pf_72h_%Growth_Rep2
[12] = T. gondii, screen at 2 μg/mL, replicate 1, read-out: Tg_72h_%Growth_Rep1
[13] = T. gondii, screen at 2 μg/mL, replicate 2, read-out: Tg_72h_%Growth_Rep2
[14] = 3D7, P. falciparum, 120 h, screen at 2 μg/mL, replicate 1, read-out: Pf_120h_%Growth_Rep1
[15] = 3D7, P. falciparum, 120 h, screen at 2 μg/mL, replicate 2, read-out: Pf_120h_%Growth_Rep2
[16] = T. gondii, 2 μg/mL, values are growth (% of control)
[17] = P. falciparum, 72 h, screen at 2 μg/mL, replicate 1
[18] = P. falciparum, 72 h, screen at 2 μg/mL, replicate 2
[19] = T. gondii, screen at 2 μg/mL, replicate 1
[20] = T. gondii, screen at 2 μg/mL, replicate 2
[21] = P. falciparum, 120 h, screen at 2 μg/mL, replicate 1
[22] = P. falciparum, 120 h, screen at 2 μg/mL, replicate 2

Compound | Pf_72h_%Growth_Rep1 [1, 4] [%] | Pf_72h_%Growth_Rep2 [1, 5] [%] | Tg_72h_%Growth_Rep1 [2, 6] [%] | Tg_72h_%Growth_Rep2 [2, 7] [%] | Pf_120h_%Growth_Rep1 [3, 8] [%] | Pf_120h_%Growth_Rep2 [3, 9] [%] | Pf_72h_%Growth_Rep1 [1, 17] [%] | Pf_72h_%Growth_Rep2 [1, 18] [%] | Tg_72h_%Growth_Rep1 [2, 19] [%] | Tg_72h_%Growth_Rep2 [2, 20] [%] | Pf_120h_%Growth_Rep1 [3, 21] [%] | Pf_120h_%Growth_Rep2 [3, 22] [%] | further results
CCc1cc(O)cc(O)c1C(=O)O[C@H]1[C@H](O)[C@H](OC)[C@H](OC/C2=C\C=C\C[C@H](O)/C(C)=C/[C@H](CC)[C@@H](O[C@@H]3OC(C)(C)[C@@H](OC(=O)C(C)C)[C@H](O)[C@@H]3O)/C(C)=C/C(C)=C/C[C@@H]([C@@H](C)O)OC2=O)O[C@@H]1C [Didechlorofidaxomicin] | 4.39 | 6.69 | 110.91 | 90.14 | 14.52 | 29.62 | – | – | – | – | – | – | –
CCC1OC2(CCC1C)CC1CC(CC=C(C)CC(C)C=CC=C3COC4C(=NO)C(C)=CC(C(=O)O1)C34O)O2 (stereo not drawn) [BIA-M1532] | – | – | – | – | – | – | – | – | – | – | – | – | Pf_72h_%Growth_Rep1 ([1]; P. falciparum 3D7, 72 h, parasite screen at 2 μg/mL, % growth, replicate 1): 26.87%; Pf_72h_%Growth_Rep2 ([1]; P. falciparum 3D7, 72 h, parasite screen at 2 μg/mL, % growth, replicate 2): 18.08%; Tg_72h_%Growth_Rep1 ([2]; T. gondii, parasite screen at 2 μg/mL, % growth, replicate 1): 83.72%; Tg_72h_%Growth_Rep2 ([2]; T. gondii, parasite screen at 2 μg/mL, % growth, replicate 2): 81.98%; Pf_120h_%Growth_Rep1 ([3]; P. falciparum 3D7, 120 h, parasite screen at 2 μg/mL, % growth, replicate 1): 8.04%; Pf_120h_%Growth_Rep2 ([3]; P. falciparum 3D7, 120 h, parasite screen at 2 μg/mL, % growth, replicate 2): 16.57%
CC[C@H]1OC(=O)[C@H](C)[C@@H](O[C@H]2C[C@@](C)(OC)[C@@H](O)[C@H](C)O2)[C@H](C)[C@@H](O[C@@H]2O[C@H](C)C[C@H](N(C)C)[C@H]2O)[C@](C)(OC)C[C@@H](C)C(=O)[C@H](C)[C@@H](O)[C@]1(C)O [Clarithromycin] | – | – | – | – | – | – | – | – | – | – | – | – | activity at 2 µg/mL [1, 10]: 74.8%; activity at 2 µg/mL [1, 11]: 62.6%; percent parasite growth at 2 µg/mL [2, 12]: 40.9%; percent parasite growth at 2 µg/mL [2, 13]: 40.8%; activity at 2 µg/mL [3, 14]: 31.2%; activity at 2 µg/mL [3, 15]: 16.9%
O=C1NC(c2c[nH]c3ccccc23)=C/C1=C1\C(=O)Nc2ccccc21 [Deoxyviolacein] | 4.36 | 20.63 | 14.71 | 26.55 | 11.68 | 9.06 | – | – | – | – | – | – | Mean ([2]; T. gondii, 2 μg/mL, mean of both replicates, growth (% of control)): 20.63; Replicate 1 [2, 16]: 14.71; Replicate 2 [2, 16]: 26.55
CCCCCCCCCCCCCCCC(=O)N[C@H]1C[C@@H](O)[C@@H](O)NC(=O)[C@@H]2[C@@H](O)[C@@H](C)CN2C(=O)[C@H]([C@H](O)CC(N)=O)NC(=O)[C@H]([C@H](O)[C@@H](O)c2ccc(O)c(OS(=O)(=O)O)c2)NC(=O)[C@@H]2C[C@@H](O)CN2C(=O)[C@H]([C@@H](C)O)NC1=O [FR 901379] (Palmitoyl-[Orn(4R-OH,5R-OH)]T[Hyp][hTyr(3S-OH,4S-OH,3'-OSO3H)][Gln(3R-OH)][Pro(3S-OH,4S-Me)]; lactam 1-C) | 84.19 | 83.86 | 119.40 | 105.49 | 96.37 | 99.58 | – | – | – | – | – | – | –
CC[C@@H]1/C=C(\C)C[C@H](C)C[C@H](OC)[C@H]2O[C@@](O)(C(=O)C(=O)N3CCCC[C@H]3C(=O)O[C@H](/C(C)=C/[C@@H]3CC[C@@H](O)[C@H](OC)C3)[C@H](C)[C@@H](O)CC1=O)[C@H](C)C[C@@H]2OC [Ascomycin] | – | – | – | – | – | – | – | – | – | – | – | – | activity at 2 µg/mL ([1]; 3D7, library screen at 2 μg/mL, 72 h, % growth, replicate 1, read-out: Pf_72h_%Growth_Rep1): 44.9%; activity at 2 µg/mL ([1]; 3D7, library screen at 2 μg/mL, 72 h, % growth, replicate 2, read-out: Pf_72h_%Growth_Rep2): 50.6%; percent parasite growth at 2 µg/mL ([2]; library screen at 2 μg/mL, % growth, replicate 1, read-out: Tg_72h_%Growth_Rep1): 79.9%; percent parasite growth at 2 µg/mL ([2]; library screen at 2 μg/mL, % growth, replicate 2, read-out: Tg_72h_%Growth_Rep2): 79.4%; activity at 2 µg/mL ([3]; 3D7, library screen at 2 μg/mL, 120 h, % growth, replicate 1, read-out: Pf_120h_%Growth_Rep1): 70.5%; activity at 2 µg/mL ([3]; 3D7, library screen at 2 μg/mL, 120 h, % growth, replicate 2, read-out: Pf_120h_%Growth_Rep2): 40.4%
Enniatin A1 | 5.31 | 1.97 | -0.69 | 13.13 | 8.66 | 18.71 | – | – | – | – | – | – | –
O=C(O)c1c(=O)cccc2ssc12 [Tropodithietic acid] | – | – | – | – | – | – | 3.58 | -3.15 | 1.16 | 1.78 | 21.29 | 16.13 | –
CC[C@H]1OC(=O)[C@H](C)[C@@H](O[C@H]2C[C@@](C)(OC)[C@@H](O)[C@H](C)O2)[C@H](C)[C@@H](O[C@@H]2O[C@H](C)C[C@H](N(C)C)[C@H]2O)[C@](C)(O)C[C@@H](C)C(=O)[C@H](C)[C@H]2OC(=O)O[C@@]21C [Davercin, reference compound] | – | – | – | – | – | – | 70.33 | 55.54 | 45.64 | 28.61 | 17.41 | 8.68 | 1) Growth (%) at 72 h ([1]; P. falciparum, 2 μg/mL, 72 h): 62.94%; 2) Growth (%) at 120 h ([3]; P. falciparum, 2 μg/mL, 120 h): 13.05%; 3) Fold change (72 h/120 h) ([3]; P. falciparum, growth at 72 h / growth at 120 h, 2 μg/mL): 4.8
C=CC(C)(C)[C@@]12C[C@H]3C(=O)N[C@H](CC(C)C)C(=O)N3[C@H]1N(C(C)=O)c1ccccc12 [Verrucofortine] | – | – | – | – | – | – | – | – | – | – | – | – | activity at 2 µg/mL [1, 10]: 70%; activity at 2 µg/mL [1, 11]: 83.7%; percent parasite growth at 2 µg/mL [2, 12]: 90.9%; percent parasite growth at 2 µg/mL [2, 13]: 99.7%; activity at 2 µg/mL [3, 14]: 152%; activity at 2 µg/mL [3, 15]: 81.9%
C/C1=C\[C@@H](C)C/C=C/[C@H]2[C@@H]3O[C@]3(C)[C@@H](C)[C@H]3[C@H](Cc4c[nH]c5ccccc45)NC(=O)[C@]32C(=O)/C=C/C(=O)[C@@H]1O [Chaetoglobosin A] | – | – | – | – | – | – | – | – | – | – | – | – | activity at 2 µg/mL ([1]; 3D7, 72 h, P. falciparum, 72 h, screen at 2 μg/mL, replicate 1, read-out: Pf_72h_%Growth_Rep1): 10.6%; activity at 2 µg/mL ([1]; 3D7, 72 h, P. falciparum, 72 h, screen at 2 μg/mL, replicate 2, read-out: Pf_72h_%Growth_Rep2): 0.38%; percent parasite growth at 2 µg/mL [2, 12]: 51.1%; percent parasite growth at 2 µg/mL [2, 13]: 65.4%; activity at 2 µg/mL ([3]; 3D7, 120 h, P. falciparum, 120 h, screen at 2 μg/mL, replicate 1, read-out: Pf_120h_%Growth_Rep1): 17.4%; activity at 2 µg/mL ([3]; 3D7, 120 h, P. falciparum, 120 h, screen at 2 μg/mL, replicate 2, read-out: Pf_120h_%Growth_Rep2): 22.2%
C/C=C/C[C@@H](C)[C@@H](O)[C@H]1C(=O)N[C@@H]([C@@H](C)O)C(=O)N(C)CC(=O)N(C)[C@@H](CC(C)C)C(=O)N[C@@H](C(C)C)C(=O)N(C)[C@@H](CC(C)C)C(=O)N[C@@H](C)C(=O)N[C@H](C)C(=O)N(C)[C@@H](CC(C)C)C(=O)N(C)[C@@H](CC(C)C)C(=O)N(C)[C@@H](C(C)C)C(=O)N1C [Cyclosporin C] | – | – | – | – | – | – | 11.25 | 0.59 | 44.04 | 47.65 | 31.80 | 7.29 | –
C/C=C(\C)c1cc(O)c(C)c2c1Oc1cc(O)cc(C)c1C(=O)O2 [Unguinol] | – | – | – | – | – | – | 95.05 | 130.12 | 147.94 | 82.86 | 111.35 | 108.43 | –
